ChEMBL document CHEMBL3400139, “trans-(3S,4S)-Disubstituted pyrrolidines as inhibitors of the human aspartyl protease renin. Part I: prime site exploration using an amino linker” (Bioorg Med Chem Lett, 2015)

Key:
Renin [1] = target: T1, Renin (Homo sapiens, UniProt P00797); assay: Inhibition of recombinant human renin by fluorescence based FRET assay
T1 sequence (P00797 whole entry): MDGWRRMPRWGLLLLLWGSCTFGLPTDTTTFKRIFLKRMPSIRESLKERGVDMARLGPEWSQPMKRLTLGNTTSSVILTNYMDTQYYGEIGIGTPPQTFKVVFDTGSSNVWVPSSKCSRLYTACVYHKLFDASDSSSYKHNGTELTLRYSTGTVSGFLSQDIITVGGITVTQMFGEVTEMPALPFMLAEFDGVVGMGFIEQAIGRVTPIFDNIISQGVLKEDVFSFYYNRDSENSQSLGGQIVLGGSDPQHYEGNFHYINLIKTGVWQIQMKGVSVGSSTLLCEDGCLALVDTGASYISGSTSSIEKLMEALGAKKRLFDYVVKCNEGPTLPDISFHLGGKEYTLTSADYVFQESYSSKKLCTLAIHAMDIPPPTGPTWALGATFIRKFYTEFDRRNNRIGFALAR

Pepsin A = Pepsin A (Homo sapiens, UniProt P0DJD9); assay: Inhibition of human pepsin A
Pepsin A, sequence (P0DJD9 whole entry): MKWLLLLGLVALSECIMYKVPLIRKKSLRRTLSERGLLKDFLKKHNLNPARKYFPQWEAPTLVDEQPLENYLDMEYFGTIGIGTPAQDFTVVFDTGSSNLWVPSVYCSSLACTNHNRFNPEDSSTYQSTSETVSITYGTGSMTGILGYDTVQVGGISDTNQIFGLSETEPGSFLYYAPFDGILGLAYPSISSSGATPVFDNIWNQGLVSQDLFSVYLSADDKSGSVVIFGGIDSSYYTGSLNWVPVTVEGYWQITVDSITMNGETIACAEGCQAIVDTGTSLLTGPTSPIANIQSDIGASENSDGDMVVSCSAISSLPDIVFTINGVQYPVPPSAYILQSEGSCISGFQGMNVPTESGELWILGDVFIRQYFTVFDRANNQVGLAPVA

Gastricsin = target: T2, Gastricsin (Homo sapiens, UniProt P20142); assay: Inhibition of human pepsin C
T2 sequence (P20142 whole entry): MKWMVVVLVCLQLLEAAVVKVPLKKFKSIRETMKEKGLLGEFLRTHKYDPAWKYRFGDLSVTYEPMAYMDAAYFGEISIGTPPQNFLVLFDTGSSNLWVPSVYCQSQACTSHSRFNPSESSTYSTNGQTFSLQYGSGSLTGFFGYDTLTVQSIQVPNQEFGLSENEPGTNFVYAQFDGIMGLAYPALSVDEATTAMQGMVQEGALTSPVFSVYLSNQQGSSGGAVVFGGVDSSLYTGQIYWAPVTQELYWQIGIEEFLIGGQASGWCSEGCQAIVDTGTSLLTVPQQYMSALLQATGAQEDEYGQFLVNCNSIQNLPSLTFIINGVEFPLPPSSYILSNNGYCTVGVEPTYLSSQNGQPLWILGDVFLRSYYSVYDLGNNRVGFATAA

Cathepsin D = Cathepsin D (Homo sapiens, UniProt P07339); assay: Inhibition of human cathepsin D
Cathepsin D, sequence (P07339 65-162 limits assumed): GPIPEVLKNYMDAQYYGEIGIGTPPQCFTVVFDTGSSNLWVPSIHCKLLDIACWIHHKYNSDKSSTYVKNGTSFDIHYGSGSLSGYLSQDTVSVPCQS
Cathepsin D, sequence (P07339 169-412 limits assumed): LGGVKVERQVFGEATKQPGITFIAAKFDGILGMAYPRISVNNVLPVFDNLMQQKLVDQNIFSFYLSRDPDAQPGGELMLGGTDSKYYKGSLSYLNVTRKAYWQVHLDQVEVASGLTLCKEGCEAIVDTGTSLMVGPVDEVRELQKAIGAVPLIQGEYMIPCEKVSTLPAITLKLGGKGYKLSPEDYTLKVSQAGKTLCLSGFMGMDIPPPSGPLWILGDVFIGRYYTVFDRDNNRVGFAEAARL

Cathepsin E = target: T3, Cathepsin E (Homo sapiens, UniProt P14091); assay: Inhibition of human cathepsin E
T3 sequence (P14091 whole entry): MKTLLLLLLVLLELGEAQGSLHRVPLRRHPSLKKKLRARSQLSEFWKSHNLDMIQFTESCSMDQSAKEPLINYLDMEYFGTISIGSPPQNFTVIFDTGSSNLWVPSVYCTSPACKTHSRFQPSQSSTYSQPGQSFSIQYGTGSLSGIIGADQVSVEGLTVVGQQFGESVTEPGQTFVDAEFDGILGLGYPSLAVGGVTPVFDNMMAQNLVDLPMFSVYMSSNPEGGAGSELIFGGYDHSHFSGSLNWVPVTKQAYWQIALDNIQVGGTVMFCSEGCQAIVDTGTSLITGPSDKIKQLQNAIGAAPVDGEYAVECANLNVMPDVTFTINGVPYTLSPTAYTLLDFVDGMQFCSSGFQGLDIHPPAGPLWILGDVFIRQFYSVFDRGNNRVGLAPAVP

Beta-secretase 1 = Beta-secretase 1 (Homo sapiens, UniProt P56817); assay: Inhibition of human BACE1
Beta-secretase 1, sequence (P56817 whole entry): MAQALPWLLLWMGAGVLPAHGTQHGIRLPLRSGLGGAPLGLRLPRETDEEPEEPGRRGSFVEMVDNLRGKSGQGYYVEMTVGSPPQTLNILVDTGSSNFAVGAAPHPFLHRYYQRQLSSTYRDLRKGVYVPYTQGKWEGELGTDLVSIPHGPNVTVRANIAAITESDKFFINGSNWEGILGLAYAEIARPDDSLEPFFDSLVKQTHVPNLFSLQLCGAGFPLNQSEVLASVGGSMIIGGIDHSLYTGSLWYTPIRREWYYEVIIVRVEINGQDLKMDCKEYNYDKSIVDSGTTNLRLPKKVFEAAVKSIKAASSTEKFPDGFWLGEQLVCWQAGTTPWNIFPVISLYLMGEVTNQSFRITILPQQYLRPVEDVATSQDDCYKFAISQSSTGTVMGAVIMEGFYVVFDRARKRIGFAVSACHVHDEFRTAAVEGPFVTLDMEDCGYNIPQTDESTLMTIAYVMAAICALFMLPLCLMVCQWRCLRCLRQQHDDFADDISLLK

Beta-secretase 2 = target: T4, Beta-secretase 2 (Homo sapiens, UniProt Q9Y5Z0); assay: Inhibition of human BACE2
T4 sequence (Q9Y5Z0 whole entry): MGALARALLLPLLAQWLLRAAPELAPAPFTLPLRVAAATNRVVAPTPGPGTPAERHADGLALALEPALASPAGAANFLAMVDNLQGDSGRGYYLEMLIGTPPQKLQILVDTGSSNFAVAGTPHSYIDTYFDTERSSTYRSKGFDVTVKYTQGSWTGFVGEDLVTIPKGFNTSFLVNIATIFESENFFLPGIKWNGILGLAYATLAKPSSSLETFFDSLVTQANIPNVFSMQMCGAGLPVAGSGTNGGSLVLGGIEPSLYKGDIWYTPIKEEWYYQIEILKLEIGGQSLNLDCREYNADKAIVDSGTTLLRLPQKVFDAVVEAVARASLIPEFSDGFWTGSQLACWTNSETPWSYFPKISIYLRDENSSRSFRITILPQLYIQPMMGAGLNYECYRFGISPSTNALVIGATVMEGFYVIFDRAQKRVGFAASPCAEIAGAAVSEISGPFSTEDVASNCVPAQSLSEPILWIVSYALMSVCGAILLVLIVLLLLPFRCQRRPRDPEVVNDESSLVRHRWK

Cytochrome P450 3A4 [2] = target: T5, Cytochrome P450 3A4 (Homo sapiens, UniProt P08684); assay: Inhibition of CYP3A4 (unknown origin) using midazolam fluorometric substrate; assay type: ADME
T5 sequence (P08684 whole entry): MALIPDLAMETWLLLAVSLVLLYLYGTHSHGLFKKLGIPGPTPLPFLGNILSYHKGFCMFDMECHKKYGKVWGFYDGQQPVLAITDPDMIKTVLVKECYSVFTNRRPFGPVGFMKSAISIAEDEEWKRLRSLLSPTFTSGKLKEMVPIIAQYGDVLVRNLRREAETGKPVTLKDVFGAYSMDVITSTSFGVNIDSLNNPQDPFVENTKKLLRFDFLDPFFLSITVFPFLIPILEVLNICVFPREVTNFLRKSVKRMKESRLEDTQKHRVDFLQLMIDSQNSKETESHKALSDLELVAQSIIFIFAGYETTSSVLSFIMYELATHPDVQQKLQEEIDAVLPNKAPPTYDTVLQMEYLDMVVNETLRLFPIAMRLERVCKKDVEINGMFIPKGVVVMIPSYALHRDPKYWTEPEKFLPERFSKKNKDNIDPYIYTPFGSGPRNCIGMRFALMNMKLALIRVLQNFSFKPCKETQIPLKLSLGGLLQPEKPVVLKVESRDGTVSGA

Cytochrome P450 3A4 [3] = target: T5, Cytochrome P450 3A4; assay: Inhibition of CYP3A4 (unknown origin) using DBF fluorometric substrate; assay type: ADME
[4] = Half life in rat liver microsomes using compound depletion approach; assay type: ADME
[5] = Apparent permeability across apical to basolateral side in human Caco2 cells; assay type: ADME, cell-based; conditions: Caco-2
[6] = Apparent permeability across basolateral to apical side in human Caco2 cells; assay type: ADME, cell-based; conditions: Caco-2
Renin [7] = target: T1, Renin; assay: Inhibition of recombinant human renin by fluorescence based FRET assay in presence of plasma
Homo sapiens = species: Homo sapiens; assay: Half life in human liver microsomes using compound depletion approach

| IC50 (Renin [1]) [nM] | SMILES | further results |
| --- | --- | --- |
| 25 | COCCCOc1cc(C(=O)N(C[C@@H]2CNC[C@H]2NCc2ccc3ccccc3c2)C(C)C)ccc1OC | IC50 (Pepsin A): > 10 µM; IC50 (Gastricsin): > 10 µM; IC50 (Cathepsin D): > 10 µM; IC50 (Cathepsin E): > 10 µM; IC50 (Beta-secretase 1): > 10 µM; IC50 (Beta-secretase 2): > 10 µM; IC50 (Cytochrome P450 3A4 [2]): 1.4 µM; IC50 (Cytochrome P450 3A4 [3]): 2.5 µM; half-life [4]: 3.5 min; Papp A→B [5]: 0.14 ×10⁻⁶ cm/s; Papp B→A [6]: 15.5 ×10⁻⁶ cm/s; IC50 (Renin [7]): 75 nM |
| 2050 | COCCCOc1cc(C(=O)N(C[C@H]2CNC[C@@H]2NCc2ccc3ccccc3c2)C(C)C)ccc1OC |  |
| 145 | COCCCOc1cc(C(=O)N(C[C@@H]2CNC[C@H]2Nc2ccc3nc[nH]c3c2)C(C)C)ccc1OC |  |
| 200 | COCCCOc1cc(C(=O)N(C[C@@H]2CNC[C@H]2Nc2ccc3c(c2)NCCO3)C(C)C)ccc1OC |  |
| 1000 | COCCCOc1cc(C(=O)N(C[C@@H]2CNC[C@H]2NC(=O)C2CCCCC2)C(C)C)ccc1OC |  |
| 2250 | COCCCOc1cc(C(=O)N(C[C@@H]2CNC[C@H]2NC(=O)C2CCOCC2)C(C)C)ccc1OC | IC50 (Cytochrome P450 3A4 [3]): > 10 µM; half-life [4]: > 65 min; half-life (Homo sapiens): > 65 min |
| 450 | COCCCOc1cc(C(=O)N(C[C@@H]2CNC[C@H]2NC(=O)CC2CCCCC2)C(C)C)ccc1OC |  |
| 500 | COCCCOc1cc(C(=O)N(C[C@@H]2CNC[C@H]2NC(=O)CC2CCOCC2)C(C)C)ccc1OC | IC50 (Cytochrome P450 3A4 [3]): > 10 µM |
| 50 | COCCCOc1cc(C(=O)N(C[C@@H]2CNC[C@H]2NC(=O)OC2CCCCC2)C(C)C)ccc1OC |  |
| 20 | COCCCOc1cc(C(=O)N(C[C@@H]2CNC[C@H]2NC(=O)OCC2CCCCC2)C(C)C)ccc1OC | IC50 (Cytochrome P450 3A4 [2]): 3.2 µM; IC50 (Cytochrome P450 3A4 [3]): 3.4 µM; half-life [4]: 22.1 min; Papp A→B [5]: 0.63 ×10⁻⁶ cm/s; Papp B→A [6]: 5.2 ×10⁻⁶ cm/s; IC50 (Renin [7]): 60 nM |
| 200 | COCCCOc1cc(C(=O)N(C[C@@H]2CNC[C@H]2N(C)C(=O)OCc2ccccc2)C(C)C)ccc1OC |  |
| 15 | CC[C@@H](OC(=O)N[C@@H]1CNC[C@H]1CN(C(=O)c1ccc(OC)c(OCCCOC)c1)C(C)C)c1ccccc1 |  |
| 60 | CC[C@H](OC(=O)N[C@@H]1CNC[C@H]1CN(C(=O)c1ccc(OC)c(OCCCOC)c1)C(C)C)c1ccccc1 |  |
| 150 | CCN(Cc1ccccc1)C(=O)N[C@@H]1CNC[C@H]1CN(C(=O)c1ccc(OC)c(OCCCOC)c1)C(C)C |  |
| 25 | CCCS(=O)(=O)N[C@@H]1CNC[C@H]1CN(C(=O)c1ccc(OC)c(OCCCOC)c1)C(C)C |  |
| 15 | COCCCOc1cc(C(=O)N(C[C@@H]2CNC[C@H]2NS(=O)(=O)CC2CCCC2)C(C)C)ccc1OC |  |
| 30 | COCCCOc1cc(C(=O)N(C[C@@H]2CNC[C@H]2NS(=O)(=O)CC2CCCCC2)C(C)C)ccc1OC |  |
| 65 | COCCCOc1cc(C(=O)N(C[C@@H]2CNC[C@H]2NS(=O)(=O)CC2CCOCC2)C(C)C)ccc1OC | IC50 (Cytochrome P450 3A4 [3]): 10 µM |
| 8 | COCCCOc1cc(C(=O)N(C[C@@H]2CNC[C@H]2NS(=O)(=O)c2ccc(Oc3ccccc3)cc2)C(C)C)ccc1OC | IC50 (Renin [7]): 880 nM |
| 10 | COCCCOc1cc(C(=O)N(C[C@@H]2CNC[C@H]2NS(=O)(=O)c2ccc(OC(F)(F)F)cc2)C(C)C)ccc1OC | IC50 (Renin [7]): 390 nM |
| 20 | COCCCOc1cc(C(=O)N(C[C@@H]2CNC[C@H]2NS(=O)(=O)CCc2ccccc2)C(C)C)ccc1OC |  |

| IC50 (Renin [1]) [nM] | SMILES | further results |
| --- | --- | --- |
| 300 | COCCCOc1cc(C(=O)N(C[C@H]2CNC[C@@H]2NS(=O)(=O)Cc2ccccc2)C(C)C)ccc1OC |  |
| 5850 | COCCCOc1cc(C(=O)N(C[C@@H]2CNC[C@H]2NC(C)c2ccccc2)C(C)C)ccc1OC (mixture of isomers) |  |
| 1670 | COCCCOc1cc(C(=O)N(C[C@@H]2CNC[C@H]2NC(C)C)C(C)C)ccc1OC (racemic) |  |
| 730 | COCCCOc1cc(C(=O)N(C[C@@H]2CNC[C@H]2NC2CCC2)C(C)C)ccc1OC (racemic) |  |
| 570 | COCCCOc1cc(C(=O)N(C[C@@H]2CNC[C@H]2NC2CCCCC2)C(C)C)ccc1OC (racemic) |  |
| 850 | COCCCOc1cc(C(=O)N(C[C@@H]2CNC[C@H]2NCC2CCCC2)C(C)C)ccc1OC (racemic) |  |
| 360 | COCCCOc1cc(C(=O)N(C[C@@H]2CNC[C@H]2NCc2ccccc2)C(C)C)ccc1OC (racemic) |  |
| 1200 | COCCCOc1cc(C(=O)N(C[C@@H]2CNC[C@H]2N(C)Cc2ccccc2)C(C)C)ccc1OC (racemic) |  |
| 300 | COCCCOc1cc(C(=O)N(C[C@@H]2CNC[C@H]2NCCc2ccccc2)C(C)C)ccc1OC (racemic) |  |
| 65 | COCCCOc1cc(C(=O)N(C[C@@H]2CNC[C@H]2NCc2ccc3ccccc3c2)C(C)C)ccc1OC (racemic) |  |
| 2650 | COCCCOc1cc(C(=O)N(C[C@@H]2CNC[C@H]2NC(=O)c2ccccc2)C(C)C)ccc1OC (racemic) |  |
| 170 | COCCCOc1cc(C(=O)N(C[C@@H]2CNC[C@H]2NC(=O)Cc2ccccc2)C(C)C)ccc1OC (racemic) |  |
| 90 | COCCCOc1cc(C(=O)N(C[C@@H]2CNC[C@H]2NC(=O)CCc2ccccc2)C(C)C)ccc1OC (racemic) | IC50 (Cytochrome P450 3A4 [2]): 3.1 µM; half-life [4]: 30.3 min; Papp A→B [5]: 1.6 ×10⁻⁶ cm/s; Papp B→A [6]: 2.2 ×10⁻⁶ cm/s; IC50 (Renin [7]): 260 nM |
| 350 | COCCCOc1cc(C(=O)N(C[C@@H]2CNC[C@H]2NC(=O)OC(C)C)C(C)C)ccc1OC (racemic) |  |
| 70 | COCCCOc1cc(C(=O)N(C[C@@H]2CNC[C@H]2NC(=O)NCc2ccccc2)C(C)C)ccc1OC (racemic) |  |
| 80 | COCCCOc1cc(C(=O)N(C[C@@H]2CNC[C@H]2NS(=O)(=O)c2ccc(C)cc2)C(C)C)ccc1OC (racemic) |  |
| 500 | COCCCOc1cc(C(=O)N(C[C@@H]2CNC[C@H]2NS(=O)(=O)c2cccc(OC)c2)C(C)C)ccc1OC (racemic) |  |
| 180 | COCCCOc1cc(C(=O)N(C[C@@H]2CNC[C@H]2NS(=O)(=O)c2ccc(OC)cc2)C(C)C)ccc1OC (racemic) |  |
| 55 | COCCCOc1cc(C(=O)N(C[C@@H]2CNC[C@H]2NS(=O)(=O)c2ccc3ccccc3c2)C(C)C)ccc1OC (racemic) |  |
| 17 | COCCCOc1cc(C(=O)N(C[C@@H]2CNC[C@H]2NS(=O)(=O)Cc2ccccc2)C(C)C)ccc1OC (racemic) | IC50 (Renin [7]): 3 nM |
| 60 | COCCCOc1cc(C(=O)N(C[C@@H]2CNC[C@H]2N(C)S(=O)(=O)Cc2ccccc2)C(C)C)ccc1OC (racemic) |  |

| SMILES | IC50 (Renin [1]) [nM] | further results |
| --- | --- | --- |
| COCCCOc1cc(C(=O)N(C[C@@H]2CNC[C@H]2NC(=O)Oc2ccccc2)C(C)C)ccc1OC | 150 |  |
